These results are taken from ChEMBL document CHEMBL3399940, “Synthesis and antimalarial evaluation of prodrugs of novel fosmidomycin analogues” (Bioorg Med Chem Lett, 2015).

One series has as its system Plasmodium falciparum. The experiment in a line: Antimalarial activity against chloroquine and mefloquine-resistant Plasmodium falciparum Dd2 after 48 hrs by SYBR Green I assay. In kind it is functional.
Series [1] is described as follows: Cytotoxicity against human HepG2A16 cells after 24 hrs by MTT assay. In kind it is cell-based. Particulars: read-out: LD50; call rule not given here.
Where [2] appears, read: Plasmodium falciparum, Dd2, 48 h, read-out: IC50.

Structures are written as SMILES.

On to `CC(C)(C)C(=O)OCOP(=O)(OCOC(=O)C(C)(C)C)C1CCCN(O)C(=O)C1` (centres undefined), for which the IC50 with Plasmodium falciparum (setting [2]) was found to be 2240 nM. Further, the CC50 at 24 h in series [1] amounted to 20100 nM.

As for `CCOP(=O)(OCC)C1CCN(OCc2ccccc2)C(=O)C1` (centres undefined), in the series on Plasmodium falciparum, the IC50 result was “Not Active”. Further, in series [1], the CC50 at 24 h is 25600 nM.

Consider `O[C@@H](c1cc(C(F)(F)F)nc2c(C(F)(F)F)cccc12)[C@H]1CCCCN1` [(S,R)-MEFLOQUINE], for which the IC50 with Plasmodium falciparum (setting [2]) was 92 nM.

As to `CC(C)(C)C(=O)OCOP(=O)(OCOC(=O)C(C)(C)C)C1CCN(O)C(=O)C1` (centres undefined), in the series with Plasmodium falciparum (setting [2]), the IC50 was determined as 27.4 nM. The CC50 at 24 h in series [1] came to 25600 nM.

For `CC(=O)N(O)CCCP(=O)(O)O`, in the series on Plasmodium falciparum (setting [2]), the IC50 was 893 nM.

Consider `CC(=O)N(O)CCCP(=O)(OCOC(=O)C(C)(C)C)OCOC(=O)C(C)(C)C`, for which the IC50 with Plasmodium falciparum (setting [2]) came out at 272 nM.
